Entries after “also recorded” stand apart in the source; their conditions may differ. Like-named read-outs stand apart in the source and are kept apart here. Blank lines part the entries; values can stand above or below the compound they belong to.
Key:
type II ER = settings: literature (40-41,43); cited from earlier work
[1] = tested on: estrogen binding protein (EBP), 84 kD heterodimer, mouse fetal liver; assay: Competition for / modulation of ^3H-estradiol-17β binding to EBP (charcoal assay); settings: for inhibition of / influence on ^3H-estradiol-17β binding to EBP: competitor concentration not stated
Description: (§1) In brief, the procedure is as follows. […] Simultaneously tubes in duplicate without any added protein sample were set up as control. At the end of the incubation the tubes were put in an ice bath for 15 minutes to cool to the ice bath temperature. 0.5 ml of charcoal solution (0.05% heat activated charcoal plus 0.05% bovine serum albumin in tris buffer) was added, mixed and incubated further for 10 minutes. The tubes were then centrifuged at 2500 rpm for 15 minutes at 4°C to pellet the charcoal. 0.5 ml from each tube was carefully withdrawn without disturbing the charcoal pellet at the bottom of the tube and the radioactivity was measured following mixing with the scintillation cocktail. The net protein bound radioactivity was calculated after deducting the background counts based on the tubes without any added protein.

[2] = tested on: estrogen binding protein (EBP), 84 kD heterodimer, mouse fetal liver; assay: Sucrose density gradient centrifugation of EBP incubated with ^3H-estradiol-17β and competitor; settings: ^3H-estradiol-17β 0.85 pmol + dimethylbenzanthracene 0.42 nmol or 1.2 nmol; Fig. 17
Source text: In the light of the above information attempts were made to analyse whether some of the known pollutants and carcinogens (1-OH, 3-OH, 8-OH, 10-OH benzo(a)pyrene, […]) compete in vitro with ^3H-estradiol-17β for binding site on EBP. […] Since benzo(a)pyrene is a known carcinogen it will be important to determine whether there is a structural relationship between estradiol-17β and the various hydroxy benzo(a)pyrenes. […] It is well known that DMBA is a potent carcinogen and as such it has been extensively used to induce estrogen dependent mammary and endometrial cancers in animals. […] However, this agent is still utilized to coat common plastics of daily use. […] Establishment of a correlationship between the in vitro and in vivo potency of such compounds will provide a rapid in vitro screening assay. Most importantly, such information for the first time will delineate a definitive role for an estrogen binder such as EBP in carcinogenesis and may also enable to explain why compounds such as DMBA induce tumors in estrogen responsive tissues as well as why the tumors are estrogen dependent.

[3] = tested on: estrogen binding protein (EBP), 84 kD heterodimer, mouse fetal liver
Description: as §1

Compound: O[C@H](CS)[C@H](O)CS (racemic) [DTT, dithiotreitol]
- sensitivity of type II ER estrogen binding to DTT (type II ER): highly sensitive

Compound: CC/C(=C(\c1ccc(O)cc1)c1ccc(OCCN(C)C)cc1)c1ccccc1 [4-hydroxytamoxifen]
- inhibition of / influence on ^3H-estradiol-17β binding to EBP [1]: no significant inhibitory effect

Compound: Cc1c2ccccc2c(C)c2c1ccc1ccccc12 [DMBA, 7,12-dimethylbenzanthracene]
- inhibition of ^3H-estradiol-17β binding (sucrose gradient centrifugation) [2]: inhibition

Compound: CC/C(=C(\c1ccccc1)c1ccc(OCCN(C)C)cc1)c1ccccc1 [Tamoxifen]
- inhibition of / influence on ^3H-estradiol-17β binding to EBP [1]: no significant inhibitory effect

Compound: CC/C(=C(/CC)c1ccc(O)cc1)c1ccc(O)cc1 [diethylstilbestrol]
- binding of the radiolabelled compound to EBP [3]: does not bind; also recorded: most estrogens no Des binding no competition (prog, androgen, corticoids)

- influence on ^3H-estradiol-17β binding to EBP ([1]; both at low and high molarity): did not significantly influence
- inhibition of / influence on ^3H-estradiol-17β binding to EBP [1]: did not influence
- binding of the radiolabelled compound to EBP ([3]; radiolabelled ligand): no binding
Compound: NCCc1ccc(O)c(O)c1 [dopamine]

- inhibition of ^3H-estradiol-17β binding to EBP ([1]; competitor at 300-fold the concentration of the radiolabelled estrogen): no inhibitory effect
Compound: C[C@]12CC[C@@H]3c4ccc(O)cc4CC[C@H]3[C@@H]1CC[C@H]2O [estradiol-17α]

- relative binding activities of the competing estrogens ([1]; calculated at the 50% reduction level, compared to non-labelled estradiol-17β competing potency): 37%
- inhibition of / influence on ^3H-estradiol-17β binding to EBP [1]: significantly inhibited
Compound: C[C@]12CC[C@@H]3c4ccc(O)cc4CC[C@H]3[C@@H]1C[C@@H](O)[C@@H]2O [estriol]
